Converted amounts (≈) assume the structure as drawn. Like-named read-outs stand apart in the source and are kept apart here.
Legend:
[1] = system: human primary hepatocytes; experiment: Expansion of compound-treated human primary hepatocytes (cell counts, Ki67 staining); type: cell-based; conditions: for proliferation of hepatocytes: FIG. 11A
Method: The metabolic phenotype of the treated hepatocytes was assessed for canalicular transport. […] Gene expression profiling confirmed that there was no significant differences between FPH-treated and untreated hepatocytes (FIG. 11D).
The ability of compounds 201-212, 215, 217 and 244-258 to expand human primary hepatocytes in vitro was also tested.

[2] = Solubility in PBS with 1% DMSO; type: physicochemical; conditions: aqueous buffer, kinetic from dmso stock
Method: (§1) Selected compounds of the invention were evaluated for physico-chemical properties, including solubility, microsomal stability, protein binding and plasma stability (Table 2).
(§2) Selected compounds of the invention were evaluated for physico-chemical properties, including solubility, microsomal stability, protein binding and plasma stability (Table 3).

[3] = Microsomal stability - Human; type: in vitro ADME; conditions: for Microsomal stability No NADPH: non-enzymatic microsomal mechanisms only; for Microsomal stability Average: enzymatic and non-enzymatic microsomal mechanisms
Method: as §1, §2

Protein binding - Human = type: in vitro ADME
Method: as §1, §2

Plasma stability - Human = type: in vitro ADME
Method: as §1, §2

[4] = system: human iPS-derived hepatocyte-like cells (iHeps); experiment: In vitro maturation of iHeps: ELISA of albumin and AFP; type: cell-based; conditions: iHeps treated for 9 days
Method: The in vitro maturation effects of selected compounds of the invention on human iPS-derived hepatocyte-like cells (iHeps) were evaluated. Human iPS cells were differentiated into iHeps and treated with selected compounds of the invention for 9 days. Maturity of treated iHeps was evaluated through ELISA quantification of mature (albumin) and immature (AFP) markers. Results are illustrated in FIG. 19.

iHeps [5] = experiment: Cytochrome P450 activity in treated iHeps; type: cell-based; conditions: iHeps treated for 9 days
From the text: iPS Cells were differentiated into iHeps, treated with selected compounds of the invention for 9 days, then assayed for CYP functions. The general CYP activity of the iHeps treated with compounds of the invention were elevated (FIG. 20A).

[6] = system: human primary hepatocytes; experiment: High-throughput liver platform, primary screening: secreted albumin by competitive ELISA; type: cell-based
From the text: In order to evaluate the phenotype of treated cells, a secondary readout was included to quantify hepatocyte functions via competitive ELISA. This biochemical assay measured the level of secreted albumin as a marker for protein synthesis functions of the cultured hepatocytes (FIG. 1A bottom).
FIG. 1B top summarizes the workflow of the screen. Primary screening was done on human primary hepatocytes, preconditioned for seven days by non-parenchymal cells in the screening platform. Upon stabilization in vitro, cultures were treated with the chemical library for 48 hours. All compounds were tested in duplicates, at a single concentration of 15 μM. This single concentration was selected via a pilot screen of ˜2,000 small molecules. All 12,480 small molecules were initially tested on a single donor of cryopreserved hepatocytes (donor a) in order to eliminate noise from donor-to-donor variability. Following compound treatment, media supernatants were collected for functional analyses via ELISA and cultures were fixed in 4% paraformaldehyde for proliferation analyses via imaging.

iHeps [7] = experiment: Differentiation of human iPS-derived hepatocytes (iHeps): morphology and immunofluorescent staining; type: cell-based
Method: (§3) The ability of compounds of the invention to affect the differentiation and maturation of iHeps was tested. Undifferentiated iPS cells were cultured on Matrigel, supported by primary mouse embryonic fibroblasts. Once confluent, iPS cells were transitioned to differentiation media, with sequential addition of growth factors (Activin A, BMP-4, bFGF, HGF, and OSM) to guide differentiation, first into endoderm, then into hepatic progenitor cells and finally into iHeps. Compound treatment started on day 21 post initiation of differentiation and acted over a period of 9 days. FH1 and FPH2 were used to treat iHeps. FH1 doubled albumin secretion during primary screening (FIG. 4A left) in a dose-responsive manner (FIG. 4A right).
To examine the effects of FH1 and FPH2 at the protein level, AFP, albumin and CYP3A4 levels weew visualized via immunofluorescent staining. […] This is in agreement with primary screening results as well as earlier morphological findings. Untreated cultures had islands that double stain for albumin and the fetal marker AFP, with very little presence of the mature marker CYP3A4.

iHeps [8] = experiment: Gene expression profiles of treated iHeps (Luminex); type: cell-based, human
Method: Cells were lysed using RLT buffer (Qiagen) or Trizol (Invitrogen) and purified using the Mini-RNeasy kit (Qiagen). Gene expression was determined using Luminex analysis, as previously described. Briefly, total RNA was immobilized on a Qiagen turbo capture 384-well plate, and reverse-transcribed using oligodT priming A biotinylated FlexMap tag sequence unique to each gene of interest and a phosphorylated downstream probe were then added to resulting cDNAs to generate biotinylated FlexMap-tagged amplicons. Universal PCR was then performed for 35 cycles using a biotinylated T7 forward primer and T3 reverse primer in buffer with dNTPs and Taq polymerase. FlexMap microsphere beads conjugated with antitag oligonucleotides were then added and allowed to hybridize. Amplicons were captured by streptavidin-phyoerythrin, and 100 events per bead were analyzed for internal bead color and phyoerythrin reporter fluorescence on a Luminex FlexMap 3D analyzer. Data for replicate loadings, expressed in mean fluorescent intensity of at least 100 beads per sample, were scaled to the human transferrin gene and row-normalized for heat map representation using GeneE open software (Broad Institute).
as §3
Euclidian clustering analyses groups untreated cells with fetal hepatocytes and treated cells with mature hepatocytes (FIG. 4C left). Of particular interest are ABC transporters, CYP3A4 and GSTP1 expression levels. ABC transporters are known to mature after birth. ABCB11, also known as bile-salt export pump (BSEP), increased ˜3 fold and ˜4 fold in expression levels with FPH2 and FH1 treatment, respectively, compared to untreated iHeps. In contrast, GSTP1 expression, whose levels decrease with maturity, remained low upon FPH2 and FH1 treatment compared to untreated iHeps (FIG. 4C right).

iHeps [9] = experiment: CYP450 activities of treated iHeps through isoenzyme-specific probes; type: cell-based, human
Method: Culture media were collected and frozen at −20° C. until analysis. Albumin content was measured through sandwich ELISA assays (MP Biomedicals, Fitzgerald, Bethyl Laboratories) using horseradish peroxidase detection and 3,3′,5,5′-tetramethylbenzidine (TMB, Fitzgerald Industries) as a substrate. Urea concentration was determined colorimetrically using diacetylmonoxime with acid and heat (Stanbio Labs). To quantify CYP450 activity, at 48 hours after small molecule exposure, cultures were incubated with substrates (coumarin from Sigma for CYP2A6, luciferin-IPA from Promega for CYP3A4) for 4 hours at 37° C. Incubation medium was collected and metabolite concentration quantified via luminescence, or fluorescence after hydrolization of potential metabolite conjugates by β-glucuronidase/arylsulfatase (Roche, Ind.).
The ability of compounds of the invention to affect the differentiation and maturation of iHeps was tested. Undifferentiated iPS cells were cultured on Matrigel, supported by primary mouse embryonic fibroblasts. […]
To confirm the staining results, secreted levels of albumin and AFP via ELISA, and CYP450 activities through isoenzyme-specific probes that are either fluorescent or luminescent were measured. […]

[10] = system: transgenic lfabp:GFP zebrafish; experiment: Liver development in transgenic lfabp:GFP zebrafish embryos; type: in vivo; conditions: exposure 24 to 72 hrs post fertilization
From the text: The effects of FH1 and PH1 on liver development were examined in transgenic lfabp:GFP zebrafish, in which GFP expression is restricted to the liver. Zebrafish embryos were allowed to develop normally for 24 hrs post fertilization and then exposed to either FH1 or PH1 until 72 hrs post fertilization (FIG. 8A). Livers were visualized by whole-mount fluorescence imaging (FIG. 8B) and lfabp in situ hybridization (FIG. 8C).

[11] = system: lfabp:GFP zebrafish embryos; experiment: Survival of zebrafish embryos after a fatal dose of APAP; type: in vivo; conditions: 10 mM APAP concurrently with compound, from 72 hrs post fertilization
Method: The effect of FH1 on zebrafish survival following APAP-induced toxicity was examined. lfabp:GFP zebrafish embryos were allowed to develop normally for 72 hrs post fertilization and then exposed to a fatal dose of 10 mM APAP concurrently with FH1 (FIG. 9A).

[12] = system: lfabp:GFP zebrafish embryos; experiment: Therapeutic window after a non-fatal dose of APAP in zebrafish embryos (liver size); type: in vivo; conditions: 5 mM APAP for 24 hrs before 24 hour treatment
Method: The current clinical treatment for APAP toxicity is the administration of NAC, which has a limited window of efficacy. To examine the therapeutic window of FH1 and PH1 efficacy, lfabp:GFP zebrafish embryos were allowed to develop normally for 48 hrs post fertilization, and then exposed to a non-fatal dose of 5 mM APAP for 24 hrs before initiation of treatment with FH1 or PH1 for an additional 24 hour period (FIG. 10A).

[13] = system: iPS-derived endothelial cells; experiment: Differentiation of iPS-derived endothelial cells (nitric oxide); type: cell-based
Method: Cells were assayed for nitric oxide (NO), a mature marker for endothelial cells. CB=FPH2, M=FH1, E=PH1, while Null and DMSO are control runs with no additive and vehicle only, respectively.

iHeps [14] = experiment: Differentiation and maturation of iHeps (albumin/AFP ELISA, staining, CYP3A4 activity); type: cell-based, human
Method: Undifferentiated iPS cells were cultured on Matrigel, supported by primary mouse embryonic fibroblasts. Once confluent, iPS cells were transitioned to differentiation media, with sequential addition of growth factors (Activin A, BMP-4, bFGF, HGF, and OSM) to guide differentiation, first into endoderm, then into hepatic progenitor cells and finally into iHeps. Compound treatment started on day 21 post initiation of differentiation and acted over a period of 9 days.
Consistent with the literature, untreated cultures had islands that double stain for albumin and the fetal marker AFP, with very little presence of the mature marker […].
The ability of compounds 201-212, 217 and 244-258 to affect the differentiation of iHeps was also tested.

human hepatocytes = experiment: CYP450 induction control in human hepatocytes; type: cell-based; conditions: 250 μM
Method: To confirm the staining results, secreted levels of albumin and AFP via ELISA, and CYP450 activities through isoenzyme-specific probes that are either fluorescent or luminescent were measured. ELISA results verified both an increase in albumin secretion and a decrease in AFP secretion by treated iHeps (FIG. 4D bottom). CYP3A4 activity increased by 16 and 45 times upon treatment with FH1 and FPH2, respectively. […] Induction was considered as a possible explanation for these elevations in CYP450 activity. However, this was unlikely based on the following experiments. […] Since a period of at least 48 hrs separated compound treatment and the measurement of CYP450 activity, the iHeps were expected to have recovered from any general elevations in CYP450 activity.

[15] = system: lfabp:GFP zebrafish embryos; conditions: clinical treatment for APAP toxicity; cited from earlier work

solubility ([2]; read-out: Solubility Average) [µM] | solubility ([2]; read-out: Solubility Rep1) [µM] | solubility ([2]; read-out: Solubility Rep2) [µM] | solubility ([2]; read-out: Solubility Rep3) [µM] | Microsomal stability Rep1 [3] [% remaining] | Microsomal stability Rep2 [3] [% remaining] | Microsomal stability No NADPH [3] [% remaining] | Microsomal stability Average [3] [% remaining] | Protein binding Average (Protein binding - Human) [% bound] | Protein binding Rep1 (Protein binding - Human) [% bound] | Protein binding Rep2 (Protein binding - Human) [% bound] | Plasma stability Average (Plasma stability - Human) [% remaining] | experimental range of effective concentrations, CYP2A6 (iHeps [5]) [µM] | experimental range of effective concentrations, CYP3A4 (iHeps [5]) [µM] | experimental range of effective concentrations, CYP3A7 (iHeps [5]) [µM] | experimental range of effective concentrations, general CYP activity (general BFC) (iHeps [5]) [µM] | SMILES | proliferation of hepatocytes [1] | experimental range of effective concentrations, albumin (mature marker) [4] [µM] | other results
41 (≈ 22.5 µg/mL) | 33 (≈ 18.1 µg/mL) | 47 (≈ 25.8 µg/mL) | 41 (≈ 22.5 µg/mL) | 52.4 | 59.3 | 94.4 | 55.8 | 99.5 | 99.4 | 99.5 | 87.1 | 10 to 26.7 | 6.7 to 20 | 10 to 13.3 | 13.3 | C[C@H](CO)N1C[C@H](C)[C@H](CN(C)C(=O)Nc2ccc(F)cc2)Oc2ncc(C#Cc3ccc(F)cc3)cc2C1=O [Compound 107, 3-(4-fluorophenyl)-1-(((2R,3S)-8-((4-fluorophenyl)ethynyl)-5-((R)-1-hydroxypropan-2-yl)-3-methyl-6-oxo-3,4,5,6-tetrahydro-2H-pyrido[2,3-b][1,5]oxazocin-2-yl)methyl)-1-methylurea] | induced proliferation | 5 to 20 | Ki67 staining co-localized with Hoechst and human albumin stains [1]: increased
 |  |  |  |  |  |  |  |  |  |  |  |  |  |  |  | CC(=O)Nc1ccc(Cc2ccc(NC(C)=O)cc2)cc1 [FH1, N,N′-(methylenebis(4,1-phenylene))diacetamide] |  |  | albumin secretion during primary screening [6]: doubled; staining of treated islands for albumin, CYP3A4 and AFP (iHeps [7]; immunofluorescent staining): double stained strongly for albumin and CYP3A4, with very minimal presence of AFP; albumin staining (immunofluorescent) (iHeps [7]; treated iHeps): dramatic increases; hepatocyte phenotype of treated iHeps (iHeps [7]; treatment from day 21, 9 days): more mature hepatocyte phenotypes; ABCB11 (BSEP) expression level increase compared to untreated iHeps (iHeps [8]): ~4 fold; GSTP1 expression compared to untreated iHeps (iHeps [8]): remained low; CYP3A4 activity increase (iHeps [9]): 16 times; liver size compared to DMSO-treated controls [10]: increased; survival of embryos [11]: 71%; embryonic liver size / liver mass after APAP compared to controls [12]: mitigated APAP-induced loss of liver mass; differentiation of iPS-derived endothelial cells (nitric oxide) [13]: induce differentiation
> 100 | > 100 | > 100 | > 100 | 99.4 | 95.3 | 102.3 | 97.4 | 12.0 | 11.8 | 12.1 | 104.2 | 10 to 20 | 6.7 to 13.3 | 6.7 to 10 | 6.7 to 13.3 | C[C@H]1CN([C@@H](C)CO)C(=O)CCCn2cc(nn2)CO[C@H]1CN(C)C(=O)C1CC1 [Compound 108, N-(((4R,5S,Z)-7-((S)-1-hydroxypropan-2-yl)-5-methyl-8-oxo-11H-3-oxa-7-aza-1(4,1)-triazolacycloundecaphane-4-yl)methyl)-N-methylcyclopropanecarboxamide] | induced proliferation | 5 to 13.3 | hepatocyte phenotype of treated iHeps (iHeps [14]): more mature hepatocyte phenotypes; AFP secretion (ELISA) (iHeps [14]; treatment from day 21, 9 days): decreased; albumin secretion (ELISA) (iHeps [14]; treatment from day 21, 9 days): increased
 |  |  |  |  |  |  |  |  |  |  |  |  |  |  |  | O=c1cc(-c2ccccc2)oc2ccc3ccccc3c12 [BNF, β-naphthoflavone] |  |  | CYP450 activity (human hepatocytes): elevated
 |  |  |  |  |  |  |  |  |  |  |  |  |  |  |  | CC(=O)N[C@@H](CS)C(=O)O [NAC] |  |  | typical therapeutic window [15]: ~8 h
